What was measured:
[1] = system: glucuronosyltransferases; experiment: glucuronidation by glucuronosyltransferases in vitro; format: in vitro ADME; details: parallel experiments
[2] = target: IMPDH type I (Homo sapiens, UniProt P20839); details: Carr et al.; read-out: Ki, IMPDH type I expressed in normal cells; cited from earlier work
[3] = system: tumors; details: quick conversion into the inactive β-glucuronide after administration; cited from earlier work
[4] = system: B and T lymphocyte; details: cited from earlier work
[5] = system: inosine monophosphate dehydrogenase (IMPDH); details: Marquez et al., J. Med. Chem. 1986; cited from earlier work
[6] = target: human IMPDH type II (Homo sapiens, UniProt P12268); experiment: inhibitory activity against human IMPDH type II; format: biochemical; details: 100 μM NAD, 50 μM IMP, 25 nM enzyme, pH 8.0; read-out: Ki, inhibitor of IMPDH type II
[7] = system: K562 erythroleucemic cells; experiment: anti-proliferative activity against K562 cells; format: cell-based; details: Homo sapiens, read-out: IC50, growth of K562 cells
Experimental: The compounds of structure 1 are stable in plasma at room temperature for at least several days. It is assayed for both inhibitory activity against human IMPDH type II and for anti-proliferative activity against K562 erythroleucemic cells. […] The ability to induce differentiation in K562 cells is also estimated by determining the fraction of benzidine positive cells converted following incubation with β-methylene-MAD.

Chain of IMPDH type I (P20839 whole entry): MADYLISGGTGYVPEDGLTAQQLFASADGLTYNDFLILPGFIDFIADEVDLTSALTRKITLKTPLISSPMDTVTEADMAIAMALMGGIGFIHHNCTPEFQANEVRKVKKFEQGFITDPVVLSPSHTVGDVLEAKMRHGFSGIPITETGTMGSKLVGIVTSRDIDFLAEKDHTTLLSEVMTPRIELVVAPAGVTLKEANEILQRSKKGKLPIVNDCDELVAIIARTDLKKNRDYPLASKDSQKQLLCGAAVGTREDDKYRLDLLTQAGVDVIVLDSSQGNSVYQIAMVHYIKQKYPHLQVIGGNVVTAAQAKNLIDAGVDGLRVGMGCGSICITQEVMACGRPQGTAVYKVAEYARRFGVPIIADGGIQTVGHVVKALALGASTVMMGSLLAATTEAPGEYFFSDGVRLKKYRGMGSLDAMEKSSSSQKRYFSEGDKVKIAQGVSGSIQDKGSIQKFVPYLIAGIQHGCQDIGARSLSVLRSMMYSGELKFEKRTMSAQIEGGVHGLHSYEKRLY

## COc1c(C)c2c(c(O)c1C/C=C(\C)CCC(=O)O)C(=O)OC2 [mycophenolic acid, Mycophenolic acid]
[1]
  glucuronidation by various glucuronosyltransferases: effectively glucuronidated
[2]
  Ki: 33 to 37 nM
[3]
  activity against tumors: inactive
[4]
  B and T lymphocyte proliferation: blocks

## NC(=O)c1csc([C@@H]2O[C@H](COP(=O)(O)CP(=O)(O)OC[C@H]3O[C@@H](n4cnc5c(N)ncnc54)[C@H](O)[C@@H]3O)[C@@H](O)[C@H]2O)n1 [β-methylene TAD]
[5]
  inhibition of IMPDH: potent inhibitor

## COc1c(C)c2c(c(O)c1CC=C(C)CCCOP(=O)(O)CP(=O)(O)OCC1OC(n3cnc4c(N)ncnc43)C(O)C1O)C(=O)OC2 (stereo not drawn) [β-methylene-MAD, P^1-(adenosin-5-yl)-P^2-(mycophenol-5′-yl)methylenebis(phosphonate)]
[6]
  Ki: 300 nM
[7]
  IC50: 6000 nM
[1]
  glucuronidation by various glucuronosyltransferases: completely resistant to glucuronidation
